Columns and labels:
Format in all cases: in vivo
[1] = tested on: barnyardgrass (Echinochloa crus-galli); assay: Test B flooded paddy test; conditions: for Plant response rating, Flood, Barnyardgrass: 250 g ai/ha, flooded paddy test, visual rating on 0 to 100 scale (0 no effect, 100 complete control) after 13 to 15 days; for Plant response rating, Barnyardgrass: Flood (flooded paddy test), 13 to 15 days
Method in brief: (§1)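 Rice, umbrella sedge, ducksalad and barnyardgrass were grown to the 2-leaf stage, flooded to 3 cm, and compound was applied directly to the paddy water, with that depth kept throughout. After 13 to 15 days in the greenhouse, plants were visually rated against controls on a 0 (no effect) to 100 (complete control) scale.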

[2] = tested on: umbrella sedge (Cyperus difformis); assay: Test B flooded paddy test; conditions: for Plant response rating, Flood, Sedge, Umbrella: 250 g ai/ha, flooded paddy test, visual rating on 0 to 100 scale (0 no effect, 100 complete control) after 13 to 15 days; for Plant response rating, Sedge, Umbrella: Flood (flooded paddy test), 13 to 15 days
Method in brief: as §1

[3] = tested on: morningglory (Ipomoea coccinea); assay: Test B pre-/postemergence plant response
Method in brief: (§2)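 Seeds were sown in loam soil/sand blend and treated preemergence with compound in non-phytotoxic solvent mixture containing surfactant; postemergence sprays, same formulation, went onto plants 2 to 18 cm (1- to 4-leaf stage) in peat-based planting medium. Greenhouse 13 to 15 days, then visual rating versus untreated controls, 0 (no effect) to 100 (complete control).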

[4] = tested on: bermudagrass (Cynodon dactylon); assay: Test B pre-/postemergence plant response
Method in brief: as §2

[5] = tested on: cocklebur (Xanthium strumarium); assay: Test B pre-/postemergence plant response
Method in brief: as §2

[6] = tested on: lambsquarters (Chenopodium album); assay: Test B pre-/postemergence plant response
Method in brief: as §2

[7] = tested on: wheat (Triticum aestivum); assay: Test B pre-/postemergence plant response
Method in brief: as §2

[8] = tested on: green foxtail (Setaria viridis); assay: Test B pre-/postemergence plant response
Method in brief: as §2

[9] = tested on: yellow nutsedge (Cyperus esculentus); assay: Test B pre-/postemergence plant response
Method in brief: as §2

[10] = tested on: large crabgrass (Digitaria sanguinalis); assay: Test B pre-/postemergence plant response
Method in brief: as §2

[11] = tested on: goosegrass (Eleusine indica); assay: Test B pre-/postemergence plant response
Method in brief: as §2

wild oat (Avena fatua) = assay: Test B pre-/postemergence plant response
Method in brief: as §2

[12] = 31 g ai/ha, scale of 0 to 100 where 0 is no effect and 100 is complete control
[13] = 62 g ai/ha, scale of 0 to 100 where 0 is no effect and 100 is complete control
[14] = 125 g ai/ha, scale 0 to 100, 0 is no effect, 100 is complete control
[15] = 31 g ai/ha, postemergence, scale 0 to 100, 0 is no effect, 100 is complete control
[16] = Postemergence, 62 g ai/ha, scale 0 (no effect) to 100 (complete control), 13 to 15 days
[17] = Postemergence, 125 g ai/ha, visual rating after 13 to 15 days, scale 0 (no effect) to 100 (complete control)
[18] = Postemergence, 250 g ai/ha, scale 0 to 100 (0 no effect, 100 complete control)
[19] = Preemergence, 31 g ai/ha, scale 0 to 100 (0 no effect, 100 complete control)
[20] = Preemergence, 62 g ai/ha, scale 0 to 100 (0 no effect, 100 complete control)
[21] = Preemergence, 125 g ai/ha, scale 0 to 100, 0 no effect, 100 complete control
[22] = 250 g ai/ha, Preemergence, 0 to 100 scale
[23] = Flood, 31 g ai/ha, scale 0 to 100 (0 no effect, 100 complete control)
[24] = Postemergence, 31 g ai/ha, 0 to 100 scale (0 no effect, 100 complete control)
[25] = Postemergence, 125 g ai/ha, scale 0 to 100 (0 no effect, 100 complete control)
[26] = Postemergence, 250 g ai/ha, scale 0 to 100 (0 no effect, 100 complete control), 13 to 15 days

Cc1cc(-n2c(-c3ccccc3)ncc(C(=O)C3=C(O)CCCC3=O)c2=O)ccc1F [Compound 53]
Plant response rating, Flood, Barnyardgrass [1]: 75
Plant response rating, Barnyardgrass [1, 12]: 20
Plant response rating, Barnyardgrass [1, 13]: 40
Plant response rating, Barnyardgrass [1, 14]: 55
Plant response rating, Flood, Sedge, Umbrella [2]: 90
Plant response rating, Sedge, Umbrella [2, 12]: 40
Plant response rating, Sedge, Umbrella [2, 13]: 85
Plant response rating, Sedge, Umbrella [2, 14]: 90
Plant response rating, Morningglory [3, 15]: 55
Plant response rating, Morningglory [3, 16]: 75
Plant response rating, Morningglory [3, 17]: 80
Plant response rating, Morningglory [3, 18]: 98
Plant response rating, Morningglory [3, 19]: 0
Plant response rating, Morningglory [3, 20]: 20
Plant response rating, Morningglory [3, 21]: 25
Plant response rating, Bermudagrass [4, 15]: 90
Plant response rating, Bermudagrass [4, 22]: 100
Plant response rating, Bermudagrass [4, 16]: 95
Plant response rating, Bermudagrass [4, 17]: 98
Plant response rating, Bermudagrass [4, 18]: 98
Plant response rating, Bermudagrass [4, 20]: 100
Plant response rating, Bermudagrass [4, 21]: 100
Plant response rating, Cocklebur [5, 15]: 80
Plant response rating, Cocklebur [5, 22]: 70
Plant response rating, Cocklebur [5, 16]: 85
Plant response rating, Cocklebur [5, 17]: 85
Plant response rating, Cocklebur [5, 18]: 90
Plant response rating, Cocklebur [5, 19]: 10
Plant response rating, Cocklebur [5, 20]: 20
Plant response rating, Cocklebur [5, 21]: 65
Plant response rating, Lambsquarters [6, 15]: 90
Plant response rating, Lambsquarters [6, 22]: 100
Plant response rating, Lambsquarters [6, 16]: 95
Plant response rating, Lambsquarters [6, 17]: 98
Plant response rating, Lambsquarters [6, 18]: 98
Plant response rating, Lambsquarters [6, 19]: 98
Plant response rating, Lambsquarters [6, 20]: 100
Plant response rating, Lambsquarters [6, 21]: 100
Plant response rating, Wheat [7, 15]: 20
Plant response rating, Wheat [7, 16]: 25
Plant response rating, Wheat [7, 17]: 30
Plant response rating, Wheat [7, 18]: 50
Plant response rating, Wheat [7, 19]: 0
Plant response rating, Wheat [7, 20]: 0
Plant response rating, Wheat [7, 21]: 0
Plant response rating, Foxtail, Green [8, 15]: 95
Plant response rating, Foxtail, Green [8, 22]: 98
Plant response rating, Foxtail, Green [8, 16]: 100
Plant response rating, Foxtail, Green [8, 17]: 100
Plant response rating, Foxtail, Green [8, 18]: 100
Plant response rating, Foxtail, Green [8, 19]: 60
Plant response rating, Foxtail, Green [8, 20]: 60
Plant response rating, Foxtail, Green [8, 21]: 98
Plant response rating, Nutsedge, Yellow [9, 15]: 20
Plant response rating, Nutsedge, Yellow [9, 16]: 65
Plant response rating, Nutsedge, Yellow [9, 17]: 75
Plant response rating, Nutsedge, Yellow [9, 18]: 75
Plant response rating, Nutsedge, Yellow [9, 19]: 65
Plant response rating, Nutsedge, Yellow [9, 20]: 80
Plant response rating, Nutsedge, Yellow [9, 21]: 90
Plant response rating, Crabgrass, Large [10, 15]: 85
Plant response rating, Crabgrass, Large [10, 22]: 100
Plant response rating, Crabgrass, Large [10, 16]: 95
Plant response rating, Crabgrass, Large [10, 17]: 95
Plant response rating, Crabgrass, Large [10, 18]: 100
Plant response rating, Crabgrass, Large [10, 19]: 75
Plant response rating, Crabgrass, Large [10, 20]: 100
Plant response rating, Crabgrass, Large [10, 21]: 100
Plant response rating, Goosegrass [11, 15]: 75
Plant response rating, Goosegrass [11, 22]: 100
Plant response rating, Goosegrass [11, 16]: 80
Plant response rating, Goosegrass [11, 17]: 80
Plant response rating, Goosegrass [11, 18]: 85
Plant response rating, Goosegrass [11, 19]: 98
Plant response rating, Goosegrass [11, 20]: 100
Plant response rating, Goosegrass [11, 21]: 100
Plant response rating, Oat, Wild (wild oat (Avena fatua); [15]): 50
Plant response rating, Oat, Wild (wild oat (Avena fatua); [16]): 70
Plant response rating, Oat, Wild (wild oat (Avena fatua); [17]): 85
Plant response rating, Oat, Wild (wild oat (Avena fatua); [18]): 85
Plant response rating, Oat, Wild (wild oat (Avena fatua); [19]): 0
Plant response rating, Oat, Wild (wild oat (Avena fatua); [20]): 0
Plant response rating, Oat, Wild (wild oat (Avena fatua); [21]): 0

CCCn1c(-c2cc(C)cc(C)c2)ncc(C(=O)C2=C(O)CCCC2=O)c1=O [Compound 156]
Plant response rating, Flood, Barnyardgrass [1]: 60
Plant response rating, Barnyardgrass [1, 13]: 20
Plant response rating, Barnyardgrass [1, 14]: 40
Barnyardgrass plant response rating [1, 23]: 0
Plant response rating, Flood, Sedge, Umbrella [2]: 100
Plant response rating, Sedge, Umbrella [2, 13]: 95
Plant response rating, Sedge, Umbrella [2, 14]: 100
Sedge, Umbrella plant response rating [2, 23]: 0
Plant response rating, Morningglory [3, 24]: 80
Plant response rating, Morningglory [3, 25]: 100
Plant response rating, Morningglory [3, 26]: 100
Bermudagrass plant response rating (0 to 100 scale) ([4]; 62 g ai/ha, postemergence, 0 is no effect, 100 is complete control, 13 to 15 days): 90
Plant response rating, Bermudagrass [4, 24]: 80
Plant response rating, Bermudagrass [4, 25]: 95
Plant response rating, Bermudagrass [4, 26]: 98
Plant response rating, Cocklebur [5, 24]: 20
Plant response rating, Cocklebur [5, 25]: 75
Plant response rating, Cocklebur [5, 26]: 98
Plant response rating, Lambsquarters [6, 24]: 80
Plant response rating, Lambsquarters [6, 25]: 95
Plant response rating, Lambsquarters [6, 26]: 100
Plant response rating, Wheat [7, 24]: 15
Plant response rating, Wheat [7, 25]: 35
Plant response rating, Wheat [7, 26]: 45
Plant response rating, Foxtail, Green [8, 24]: 45
Plant response rating, Foxtail, Green [8, 25]: 85
Plant response rating, Foxtail, Green [8, 26]: 85
Plant response rating, Nutsedge, Yellow [9, 24]: 45
Plant response rating, Nutsedge, Yellow [9, 25]: 70
Plant response rating, Nutsedge, Yellow [9, 26]: 75
Plant response rating, Crabgrass, Large [10, 24]: 45
Plant response rating, Crabgrass, Large [10, 25]: 65
Plant response rating, Crabgrass, Large [10, 26]: 80
Plant response rating, Goosegrass [11, 24]: 65
Plant response rating, Goosegrass [11, 25]: 70
Plant response rating, Goosegrass [11, 26]: 80
Plant response rating, Oat, Wild (wild oat (Avena fatua); [24]): 5
Plant response rating, Oat, Wild (wild oat (Avena fatua); [25]): 35
Plant response rating, Oat, Wild (wild oat (Avena fatua); [26]): 50

Source: US8952024B2, “Herbicidal pyrimidone derivatives” (E I du Pont de Nemours and Company, priority 2009, dated 2015)
